From US7122193B1 (priority 1994, dated 2006)
Read-outs that look alike come from different tables or passages of the source. Peptide text beside a SMILES is read from it.

How the values were obtained:
[1] = test system: IgG antibodies of sera of patients suffering from DLE and SS; assay type: binding, human
MAb 4 × 11 = assay type: binding, mouse
[2] = biological target: MAb 4 × 8 (IgG1) anti-L peptide
[3] = biological target: MAb 11 × 2 (IgG3) anti-D peptide
MAb 11 × 7 [4] = assay type: binding, mouse
[5] = biological target: MAb 4 × 10 (IgG1) anti-L peptide
BALB/c mice = conditions: mouse, in vivo
in vitro = conditions: pH 7.4
[6] = biological target: MAb 4 × 11 (IgG1) anti-L peptide
MAb 11 × 7 [7] = assay type: binding, mouse; remark: listed apart in the source
MAb 11 × 2 = assay type: binding, mouse
[8] = test system: IgG antibodies of sera of patients suffering from DLE and SS; assay type: binding, human; remark: listed apart in the source
Procedure: FIG. 6: ELISA reactivity of serum samples originating from patients suffering from DLE and SS with the parent peptide and the analogue RIb 277–291 of Ro52. The sera of the patients are diluted to 1:1,000. Only the antibody activity of the sub-class IgG is measured. The median values of the optical density are indicated. The broken line represents the upper limit of the normal population corresponding to the mean value of the optical density of 20 normal human sera+2 SD (standard deviation) (0.30 OD units).
Sera of female F1 lupous mice (NZB/W) were obtained from S. Batsford (Freibourg, Germany). The human sera originate from patients suffering from disseminated lupus erythematosus (DLE) and Sjögren's syndrome (SS). They were obtained from D. A. Isenberg (London), O. Meyer (Paris) and G. Fournié (Toulouse). The sera of healthy volunteers were obtained from J. L. Pasquali (Strasbourg).
The sera of lupous mice were tested by ELISA as described previously (Benkirane, N., Friede, M., Guichard, G., briand, J. P., Van Regenmortel, M. H. V. and Muller, S. (1993) Antigenicity and immunogenicity of modified synthetic peptides containing D-amino acid residues. J. Biol. Chem., 268: 26279–26285). Only the antibodies of isotype IgG were tested. […] Clin. Exp. Immunol., 95: 397–407) except in the case of the peptide Ro52 277–291, where sensitization of the ELISA plates was carried out at 4° C. instead of 37° C. (see the reasons above). The threshold value for positivity of each test, including that of tests based on the use of retro-inverso peptide analogues, was determined using 20 sera of healthy individuals. The antigenic activity of the peptides is also measured by ELISA using a liquid phase inhibition test.
The 30 sera (positive or negative with respect to the L peptide) were tested in parallel with the RIa and RIb analogues. It was shown that all the sera positive with the L peptide were also positive with the retro-inverso peptides. […] The mean optical density corresponding to the arithmetic mean of all the optical density values, including the values below the threshold line of positivity, is 0.21 (standard deviation 0.25) and 0.51 (standard deviation 0.62) with the L and RIb peptides respectively.

CC[C@H](C)[C@H](NC(=O)CNC(=O)CNC(=O)[C@@H](N)CS)C(=O)N[C@@H](CCCNC(=N)N)C(=O)NCC(=O)N[C@@H](CCC(=O)O)C(=O)N[C@@H](CCCNC(=N)N)C(=O)N[C@@H](C)C(=O)O [L peptide, [H Cys-Gly-Gly]-Ile-Arg-Gly-Glu-Arg-Ala-OH] (H-CGGIRGERA-OH)
mean optical density [1]: 0.21
number of sera which reacted [1]: Six
percentage of sera which reacted [1]: 30%
ELISA (OD) reactivity with the peptides (MAb 4 × 11): 1.29 OD
Ka (affinity constant at equilibrium) [2]: 8e+07 M⁻¹
ka (association constant) [2]: 13 ± 0.2
kd (dissociation constant) [2]: 15 ± 0.2
BIAcore (Ka M^−1) affinity constant at equilibrium [3]: 2e+06 M⁻¹
Ka (affinity constant at equilibrium) [3]: 2e+06 M⁻¹
ka (association constant) [3]: 2 ± 0.3
kd (dissociation constant) [3]: 100 ± 0.2
ELISA (OD) reactivity with the peptides (MAb 11 × 7 [4]): 0.47 OD
Ka (affinity constant at equilibrium) [5]: 4,486 ×10^6 M^−1
ka (association constant) [5]: 987 ± 0.7
kd (dissociation constant) [5]: 22 ± 0.2
antibody subclasses of the response (BALB/c mice): the antibodies belong to the IgG1, 2a and 2b subclasses
half-life (in vitro): 7 min
bonding of MAb 11×2 to the L peptide in the presence of a non-digested peptide (trypsin): 220 RU
time to complete loss of immunological activity on digestion with immobilized trypsin (trypsin; pH 7.4): 10 min
BIAcore (Ka M^−1) affinity constant at equilibrium [6]: 3e+06 M⁻¹
Ka (affinity constant at equilibrium) [6]: 3e+06 M⁻¹
ka (association constant) [6]: 3 ± 0.2
kd (dissociation constant) [6]: 100 ± 0.3
Molar excesses of inhibitor peptide required to inhibit 50% of the bonding between the MAb and D peptide (MAb 11 × 7 [7]): —* (key: —: cross-reactivity not detectable (up to 250 μg/ml of competition peptide))
ELISA (OD) reactivity with the peptides (MAb 11 × 2): 2.75 OD
sera of patients tested in which anti-peptide 277–291 antibodies are detected ([8]; 30 sera of DLE and SS patients): 17%
number of sera containing antibodies of the subclass IgG which react with the peptide ([8]; among 30 sera of DLE and SS patients, threshold 0.30 OD units, plates sensitized at 4° C.): 5
mean optical density ([8]; arithmetic mean of all 30 sera, peptide 277–291 of Ro52): 0.21
